Consider one compound from patent US7772275B2, “Compositions and method for treating affective, painful or allergic disorders” (Gideon Pharmaceuticals, Inc., priority 2002, dated 2010).

Molecules are shown by their SMILES.

Data set [1] in a line: Applicant's evaluation of sedation with the cis isomer at therapeutically effective dosages. In kind it is in vivo. The source says: In an attempt to discover a compound that might have similar effectiveness to doxepin hydrochloride U.S.P. but less associated sedation, the applicant has evaluated the cis isomer, which as mentioned above constitutes less than 18.1 % of doxepin hydrochloride. […] The invention includes pharmaceutical compositions of cis doxepin suitable for administration to patients with affective disorders, painful disorders, or allergic disorders.

Data set [2] concerns pruritic skin lesions of atopic dermatitis. Description: Cream applied to pruritic skin lesions by patients with atopic dermatitis. In kind it is in vivo, human. To be noted: cream 1.0% by weight, applied two to four times daily. The source says:
A cream containing cis doxepin isomer 1.0% by weight is applied two to four times daily to pruritic skin lesions by patients with atopic dermatitis.

For data set [3] the following is noted: in animals; 'purportedly'; cited from earlier work.

Turning to `CN(C)CC/C=C1/c2ccccc2COc2ccccc21.Cl` [cis doxepin hydrochloride], the “sedation compared with doxepin hydrochloride U.S.P.” value in data set [1] was “produces less sedation”. In data set [2], the relief of itching result is “provides for relief of itching”, the “resolution of the skin lesions” value is reported as “more prompt resolution of the skin lesions” and the “sedation compared with prior art doxepin creams in which the trans isomer is predominant” value is “without producing the incidence or severity of sedation”. Moreover, the “potency compared with doxepin hydrochloride U.S.P.” value in data set [3] is given as “more potent”.
